In PubChem BioAssay AID1845217 (Molecular Pharmacology Branch, DTP, NCI, 2023):

Tested on: VA-ES-BJ tumor spheroid viability
Assay: Anticancer human tumor VA-ES-BJ cell line growth inhibition;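 note: spheroids exposed to compounds for seven days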;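 for viability, T/C: percent of DMSO vehicle control viability so 100% = untreated growth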
Settings: spheroids with HUVEC and MSC; for IC50: curve of first compound; for viability, T/C: stronger effect = lower value
Procedure, shortened: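 Single agents and combinations were tested on spheroids built from tumor cells plus HUVEC and hMSC, at half-log dilutions starting at or near clinical Cmax, else 10 microM; final DMSO 0.25% (v/v).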

[1] = second compound 1 µM, first compound 0.0316 µM
[2] = second compound 1 µM, first compound 0.1 µM
[3] = second compound 1 µM, first compound 0.316 µM
[4] = second compound 1 µM, first compound 1 µM
[5] = second compound 1 µM, first compound 3.16 µM
[6] = second compound 1 µM, first compound 10 µM
[7] = second compound 3.16 µM, first compound 0.0316 µM
[8] = second compound 3.16 µM, first compound 0.1 µM
[9] = second compound 3.16 µM, first compound 0.316 µM
[10] = second compound 3.16 µM, first compound 1 µM
[11] = second compound 3.16 µM, first compound 3.16 µM
[12] = second compound 3.16 µM, first compound 10 µM
[13] = second compound 10 µM, first compound 0.0316 µM
[14] = second compound 10 µM, first compound 0.1 µM
[15] = second compound 10 µM, first compound 0.316 µM
[16] = second compound 10 µM, first compound 1 µM
[17] = second compound 10 µM, first compound 3.16 µM
[18] = second compound 10 µM, first compound 10 µM
[19] = second compound 31.6 µM, first compound 0.0316 µM
[20] = second compound 31.6 µM, first compound 0.1 µM
[21] = second compound 31.6 µM, first compound 0.316 µM
[22] = second compound 31.6 µM, first compound 1 µM
[23] = second compound 31.6 µM, first compound 3.16 µM
[24] = second compound 31.6 µM, first compound 10 µM
[25] = second compound 100 µM, first compound 0.0316 µM
[26] = second compound 100 µM, first compound 0.1 µM
[27] = second compound 100 µM, first compound 0.316 µM
[28] = second compound 100 µM, first compound 1 µM
[29] = second compound 100 µM, first compound 3.16 µM
[30] = second compound 100 µM, first compound 10 µM

CC(C)n1c(=O)n(C)c2cnc3cc(F)c(-c4ccc(OCCCN5CCCCC5)nc4)cc3c21 + Cn1nnc2c(C(N)=O)ncn2c1=O
IC50 (second compound 1 µM): > 10000 nM
IC50 (second compound 3.16 µM): > 10000 nM
IC50 (second compound 10 µM): > 10000 nM
IC50 (second compound 31.6 µM): > 10000 nM
IC50 (second compound 100 µM): > 10000 nM
viability, T/C [1]: 93%
viability, T/C [2]: 92.2%
viability, T/C [3]: 93%
viability, T/C [4]: 105%
viability, T/C [5]: 110%
viability, T/C [6]: 77.8%
viability, T/C [7]: 94%
viability, T/C [8]: 86.3%
viability, T/C [9]: 93.3%
viability, T/C [10]: 110%
viability, T/C [11]: 111%
viability, T/C [12]: 55.6%
viability, T/C [13]: 92.2%
viability, T/C [14]: 94.3%
viability, T/C [15]: 88%
viability, T/C [16]: 103%
viability, T/C [17]: 111%
viability, T/C [18]: 62.1%
viability, T/C [19]: 80.6%
viability, T/C [20]: 100%
viability, T/C [21]: 103%
viability, T/C [22]: 103%
viability, T/C [23]: 113%
viability, T/C [24]: 53.3%
viability, T/C [25]: 103%
viability, T/C [26]: 102%
viability, T/C [27]: 106%
viability, T/C [28]: 116%
viability, T/C [29]: 109%
viability, T/C [30]: 101%

CC1COCCN1c1cc(-c2ccnn2C)c2ccnc(-c3ccn[nH]3)c2n1 (stereo not given) + Cn1nnc2c(C(N)=O)ncn2c1=O
IC50 (second compound 1 µM): 118 nM
IC50 (second compound 3.16 µM): 127 nM
IC50 (second compound 10 µM): 111 nM
IC50 (second compound 31.6 µM): 84.1 nM
IC50 (second compound 100 µM): 56.1 nM
viability, T/C [1]: 94.7%
viability, T/C [2]: 52.9%
viability, T/C [3]: 29%
viability, T/C [4]: 8.26%
viability, T/C [5]: 6.9%
viability, T/C [6]: 6.16%
viability, T/C [7]: 85.2%
viability, T/C [8]: 54.7%
viability, T/C [9]: 30.1%
viability, T/C [10]: 9.03%
viability, T/C [11]: 6.96%
viability, T/C [12]: 5.94%
viability, T/C [13]: 87.7%
viability, T/C [14]: 51.8%
viability, T/C [15]: 26.4%
viability, T/C [16]: 8.47%
viability, T/C [17]: 6.49%
viability, T/C [18]: 6.12%
viability, T/C [19]: 81.3%
viability, T/C [20]: 44%
viability, T/C [21]: 23.2%
viability, T/C [22]: 9.91%
viability, T/C [23]: 6.7%
viability, T/C [24]: 5.99%
viability, T/C [25]: 62.7%
viability, T/C [26]: 37.2%
viability, T/C [27]: 18.4%
viability, T/C [28]: 8.87%
viability, T/C [29]: 6.58%
viability, T/C [30]: 5.6%

COc1cc(C)[nH]c(=O)c1CN1CCc2c(Cl)cc(C(OC)C3COC3)c(Cl)c2C1=O (stereo not given) + Cn1nnc2c(C(N)=O)ncn2c1=O
IC50 (second compound 1 µM): 9570 nM
IC50 (second compound 3.16 µM): > 10000 nM
IC50 (second compound 10 µM): 3260 nM
IC50 (second compound 31.6 µM): 3360 nM
IC50 (second compound 100 µM): 2220 nM
viability, T/C [1]: 94%
viability, T/C [2]: 88.8%
viability, T/C [3]: 72.2%
viability, T/C [4]: 61.4%
viability, T/C [5]: 54%
viability, T/C [6]: 49%
viability, T/C [7]: 97.6%
viability, T/C [8]: 85.8%
viability, T/C [9]: 70.8%
viability, T/C [10]: 60.3%
viability, T/C [11]: 56.1%
viability, T/C [12]: 49.5%
viability, T/C [13]: 89%
viability, T/C [14]: 87.2%
viability, T/C [15]: 71.6%
viability, T/C [16]: 58.4%
viability, T/C [17]: 52.4%
viability, T/C [18]: 45.2%
viability, T/C [19]: 95.5%
viability, T/C [20]: 85.4%
viability, T/C [21]: 68.9%
viability, T/C [22]: 56.8%
viability, T/C [23]: 51.9%
viability, T/C [24]: 46%
viability, T/C [25]: 106%
viability, T/C [26]: 90.2%
viability, T/C [27]: 75.1%
viability, T/C [28]: 53.8%
viability, T/C [29]: 48.7%
viability, T/C [30]: 42.7%

COc1ccc([C@@H](O)c2cc(-c3ncnc4cc(N5CCOCC5)ccc34)c(F)cc2Cl)nn1 + Cn1nnc2c(C(N)=O)ncn2c1=O
IC50 (second compound 1 µM): 477 nM
IC50 (second compound 3.16 µM): 574 nM
IC50 (second compound 10 µM): 602 nM
IC50 (second compound 31.6 µM): 623 nM
IC50 (second compound 100 µM): 547 nM
viability, T/C [1]: 94.9%
viability, T/C [2]: 79.5%
viability, T/C [3]: 56.8%
viability, T/C [4]: 37.9%
viability, T/C [5]: 15.8%
viability, T/C [6]: 7.65%
viability, T/C [7]: 92.4%
viability, T/C [8]: 89.6%
viability, T/C [9]: 70%
viability, T/C [10]: 31%
viability, T/C [11]: 13.2%
viability, T/C [12]: 7.49%
viability, T/C [13]: 92.5%
viability, T/C [14]: 84.4%
viability, T/C [15]: 63.5%
viability, T/C [16]: 41.5%
viability, T/C [17]: 11.4%
viability, T/C [18]: 7.61%
viability, T/C [19]: 85.6%
viability, T/C [20]: 83%
viability, T/C [21]: 65.8%
viability, T/C [22]: 38.8%
viability, T/C [23]: 16.1%
viability, T/C [24]: 7.46%
viability, T/C [25]: 96.2%
viability, T/C [26]: 98.1%
viability, T/C [27]: 61.5%
viability, T/C [28]: 35%
viability, T/C [29]: 13.9%
viability, T/C [30]: 8.08%
